Source: ChEMBL document CHEMBL1201862, “PubChem BioAssay data set” (2004)
Calls of active or inactive are those of the source.

Experiments:
[1] = molecular target: T1, Epstein-Barr nuclear antigen 1 (Epstein-Barr virus (strain B95-8) (HHV-4) (Human herpesvirus 4), UniProt P03211); assay: EBNA-1 inhibitors, dose response, biochemical, fluorescence polarization, 1536-well (AID 2381); set-up: species or system human gammaherpesvirus 4;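 further: fluorescence polarization of a Cy5 DNA probe bound by EBNA-1 protein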
T1 sequence (P03211 whole entry): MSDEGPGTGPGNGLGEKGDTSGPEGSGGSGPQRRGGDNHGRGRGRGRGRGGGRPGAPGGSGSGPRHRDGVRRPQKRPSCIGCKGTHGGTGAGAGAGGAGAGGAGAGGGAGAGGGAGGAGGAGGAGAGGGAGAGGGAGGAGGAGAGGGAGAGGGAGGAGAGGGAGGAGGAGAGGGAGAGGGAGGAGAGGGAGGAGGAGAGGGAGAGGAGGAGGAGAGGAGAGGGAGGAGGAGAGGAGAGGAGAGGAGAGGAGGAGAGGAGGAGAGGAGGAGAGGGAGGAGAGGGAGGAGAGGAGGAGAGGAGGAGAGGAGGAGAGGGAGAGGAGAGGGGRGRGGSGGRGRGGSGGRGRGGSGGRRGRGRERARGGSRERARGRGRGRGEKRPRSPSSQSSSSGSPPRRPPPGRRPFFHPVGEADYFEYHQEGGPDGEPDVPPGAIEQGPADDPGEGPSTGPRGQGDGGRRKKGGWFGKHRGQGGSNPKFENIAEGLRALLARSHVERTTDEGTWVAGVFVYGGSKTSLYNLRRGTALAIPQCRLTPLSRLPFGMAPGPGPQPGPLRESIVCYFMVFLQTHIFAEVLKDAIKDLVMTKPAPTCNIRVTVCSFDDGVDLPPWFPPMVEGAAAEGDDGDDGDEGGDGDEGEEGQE

[2] = molecular target: T2, Lytic switch protein BZLF1 (Epstein-Barr virus (strain B95-8) (HHV-4) (Human herpesvirus 4), UniProt P03206); assay: EBV ZTA inhibitors, dose response, counter-screen for EBNA-1 inhibitor project, biochemical, fluorescence polarization, Epstein-Barr virus, 1536-well (AID 2377); set-up: species or system human gammaherpesvirus 4;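 further: fluorescence polarization of Cy5-labelled ZRE DNA probe bound by purified Zta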
T2 sequence (P03206 whole entry): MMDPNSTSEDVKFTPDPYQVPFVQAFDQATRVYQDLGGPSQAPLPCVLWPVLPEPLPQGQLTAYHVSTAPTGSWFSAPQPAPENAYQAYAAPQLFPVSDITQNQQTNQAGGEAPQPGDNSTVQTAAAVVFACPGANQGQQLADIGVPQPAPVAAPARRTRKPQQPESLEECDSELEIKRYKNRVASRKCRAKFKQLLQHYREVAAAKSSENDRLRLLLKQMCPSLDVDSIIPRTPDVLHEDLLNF

Kallikrein-7 = Kallikrein-7 (Homo sapiens, UniProt P49862); assay: Fluorescence Intensity-based biochemical primary high throughput dose response assay to identify activators of kallikrein-7 (K7) zymogen.
Sequence of Kallikrein-7 (P49862 whole entry): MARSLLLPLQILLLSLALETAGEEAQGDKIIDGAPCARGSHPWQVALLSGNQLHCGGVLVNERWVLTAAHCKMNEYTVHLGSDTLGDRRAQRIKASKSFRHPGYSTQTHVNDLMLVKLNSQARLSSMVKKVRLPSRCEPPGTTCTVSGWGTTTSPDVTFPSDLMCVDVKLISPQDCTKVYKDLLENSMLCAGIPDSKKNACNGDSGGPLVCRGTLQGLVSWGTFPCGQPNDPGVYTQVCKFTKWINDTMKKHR

Paired box protein Pax-8 = Paired box protein Pax-8 (Homo sapiens, UniProt Q06710); assay: inhibitors of PAX8-driven TPO luciferase reporter, dose response, RMG-I cells, cherry-pick (AID 687027); assay type: functional, cell-based;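 further: luciferase reporter driven by Pax8 target thyroperoxidase promoter measured by SteadyGlo luminescence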
Sequence of Paired box protein Pax-8 (Q06710 whole entry): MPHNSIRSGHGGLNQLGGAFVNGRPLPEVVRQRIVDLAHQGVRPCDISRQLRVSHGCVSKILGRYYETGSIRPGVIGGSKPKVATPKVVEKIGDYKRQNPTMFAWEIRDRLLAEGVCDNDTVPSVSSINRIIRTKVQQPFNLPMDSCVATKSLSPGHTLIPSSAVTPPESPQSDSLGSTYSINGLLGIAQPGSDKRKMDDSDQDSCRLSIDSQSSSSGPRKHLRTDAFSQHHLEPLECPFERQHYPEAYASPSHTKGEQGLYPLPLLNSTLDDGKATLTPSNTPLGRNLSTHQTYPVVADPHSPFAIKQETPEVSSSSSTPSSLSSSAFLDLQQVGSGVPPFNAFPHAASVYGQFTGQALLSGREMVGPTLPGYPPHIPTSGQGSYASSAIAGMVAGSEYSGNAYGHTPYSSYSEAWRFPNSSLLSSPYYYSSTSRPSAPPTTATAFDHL

[3] = non-specific cell cytotoxicity, dose response, cytotoxicity control for PAX8 inhibitor project, plate reader, dry powder samples (AID 743021); assay type: functional, cell-based
[4] = THP-1 cell cytotoxicity, dose response, cytotoxicity control for Vif-APOBEC3G degradation inhibitor project, THP-1 cells (AID 1117359); assay type: functional; conditions: Human immunodeficiency virus 1, THP-1
[5] = A2780 ovarian cancer cell cytotoxicity, dose response, cytotoxicity control, plate reader, dry powder samples (AID 743046); assay type: functional, cell-based
[6] = cytotoxicity in OVCAR8 ovarian cancer cells, dose response, PAX8 project, cell-based, plate reader, dry powder samples (AID 743197); assay type: functional; conditions: OVCAR-8
[7] = P. falciparum 3D7-ScDHODH growth inhibitors, dose response, SYBR Green, dry powder samples (AID 1159570); assay type: functional, cell-based;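 further: parasite growth measured after 72 hours of compound exposure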
[8] = P. falciparum ATP4 D1247Y mutant growth inhibitors, dose response, NITD609-resistant line, SYBR Green, dry powder (AID 1159571); assay type: functional, cell-based;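 further: parasites synchronized at ring stage by sorbitol before testing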
[9] = P. falciparum Dd2 growth inhibitors, dose response, SYBR Green, cherry-picked samples (AID 1159567); assay type: functional, cell-based
[10] = P. falciparum Dd2 growth inhibitors, dose response, SYBR Green, dry powder samples (AID 1159566); assay type: functional, cell-based;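 further: potency for growth inhibition with lower SYBR green DNA signal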
[11] = HepG2 cell cytotoxicity, dose response, cytotoxicity control, plate reader, dry powder samples (AID 1159569); assay type: functional, cell-based;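 further: inhibitor potency with signal falling toward the positive control level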
[12] = HepG2 cell cytotoxicity, dose response, cytotoxicity control, cherry-picked samples (AID 1159577); assay type: functional, cell-based

COc1ccc(Cc2nnc(NC(=O)Nc3ccccc3F)s2)cc1OC
IC50 [1]: 6.66 µM (active) | IC50 [2]: > 111 µM (not active)

CC(=O)Nc1ccc(S(=O)(=O)[N-]c2nc3ccccc3nc2-[n+]2ccc(NC(=O)c3ccccc3)cc2)cc1
EC50 (Kallikrein-7): > 69.5 µM (inactive)

CSc1ccccc1NC(=O)Cn1nnc(-c2ccc(S(C)(=O)=O)cc2)n1
IC50 [1]: 6.17 µM (active) | IC50 [2]: > 111 µM (not active)

Oc1nc2ccccc2n1C1CCN(C(c2cccs2)c2nnnn2-c2ccc3c(c2)OCCO3)CC1 (stereo not drawn)
AC50 (Paired box protein Pax-8): 1.78 µM (active) | AC50 [3]: 54.2 µM (active)

CCC(C(=O)Nc1cc(C(=O)O)ccc1C)c1ccccc1 (stereo not drawn)
CC50 [4]: > 40 µM (active)

CCOCCCn1/c(=N\C(=O)c2ccco2)c(C(=O)OCC)cc2c(=O)n3cccc(C)c3nc21
EC50 (Kallikrein-7): 38.7 µM (inactive)

CN1C(=O)c2cc(NC(=O)c3cccc(Cl)c3)ccc2OC[C@@H]2O[C@H](CC(=O)NC3CCCCC3)CC[C@@H]21
AC50 (Paired box protein Pax-8): 7.9 µM (active) | AC50 [5]: 1.19 µM (active) | AC50 [6]: 51.9 µM (active)

C[C@H](CO)N1C[C@H](C)[C@@H](CN(C)C(=O)c2ccccc2F)Oc2ncc(C#Cc3cccc(F)c3)cc2C1=O
AC50 [7]: 3.17 µM (active) | AC50 [8]: 2.1 µM (active) | AC50 [9]: 1.97 µM (active) | AC50 [10]: 1.63 µM (active) | AC50 [11]: 39.9 µM (active)

C[C@@H]1CN([C@@H](C)CO)C(=O)Cc2cc(NC(=O)Nc3ccc(C(F)(F)F)cc3)ccc2O[C@H]1CN(C)Cc1ccc(-c2ccccc2)cc1
AC50 [7]: 1.09 µM (active) | AC50 [8]: 1.83 µM (active) | AC50 [9]: 1.8 µM (active) | AC50 [12]: 21.4 µM (active) | AC50 [10]: 1.11 µM (active) | AC50 [11]: 19.3 µM (active)
